Key:
[1] = test system: Aβ42 production and/or release from SM-4 cells; assay: Aβ42 ELISA of culture media from SM-4 cells; assay type: cell-based; conditions: 16 hrs, p<0.001
Procedure: Cell Lines and Pharmacological Treatments. 293 EBNA cells (InVitrogen, Carlsbad, Calif.) stably transfected with Swedish mutant β-Amyloid Precursor Protein -695 (SM4 cells) were routinely maintained in DMEM supplemented with sodium pyruvate (1 mM) and 10% fetal bovine serum. Cells were seeded into poly-D-Lysine (SIGMA) coated 6-well plates at a density of 5-7×10^5 cells per well. Subsequently, the cells were rinsed in 1 ml of PBS and treated with 10-500 μM of pirinixic acid in serum-free/phenol red-free DMEM for 16 hours.
(§1) Aβ Detection and Standardization. After the pharmacological treatment, the exposure media was collected and supplemented with 10% sample treatment buffer (40 mM sodium phosphate (pH 7.4), 40 mM triethanolamine, 0.1% Triton X-100, 200 mM NaCl, 2 mM EGTA, 0.1% Sodium azide), and assayed for either Aβ40 or Aβ42 by a calorimetric ELISA as per the manufacturer's protocol (Biosource International Inc, California). The cells were lysed in 0.1% Triton X-100 in PBS supplemented with 5 μM propridium iodide (Molecular Probes, Eugene, Oreg.) and incubated at 37° C. for 30 minutes prior to measuring fluorescence. Aβ40 and Aβ42 were standardized against propridium iodide fluorescence as a measure of total cell number. […]
as §1, with “After” for “Aβ Detection and Standardization. After”
After the pharmacological treatment, the exposure media was collected and supplemented with 10% sample treatment buffer (40 mM sodium phosphate (pH 7.4), 40 mM triethanolamine, 0.1% Triton X-100, 200 mM NaCl, 2 mM EGTA, 0.1% Sodium azide), and assayed for either Aβ40 or Aβ42 by a colorimetric ELISA as per the manufacturer's protocol (Biosource International Inc, California). The cells were lysed in 0.1% Triton X-100 in PBS supplemented with 5 μM propridium iodide (Molecular Probes, Eugene, Oreg.) and incubated at 37° C. for 30 minutes prior to measuring fluorescence. Aβ40 and Aβ42 were standardized against propridium iodide fluorescence as a measure of total cell number.

[2] = test system: Aβ40 production and/or release from SM-4 cells; assay: Aβ40 ELISA of culture media from SM-4 cells; assay type: cell-based; conditions: 16 hrs
Procedure: Cell Lines and Pharmacological Treatments. 293 EBNA cells (InVitrogen, Carlsbad, Calif.) stably transfected with Swedish mutant β-Amyloid Precursor Protein -695 (SM4 cells) were routinely maintained in DMEM supplemented with sodium pyruvate (1 mM) and 10% fetal bovine serum. Cells were seeded into poly-D-Lysine (SIGMA) coated 6-well plates at a density of 5-7×10^5 cells per well. Subsequently, the cells were rinsed in 1 ml of PBS and treated with 10-500 μM of pirinixic acid in serum-free/phenol red-free DMEM for 16 hours. Aβ Detection and Standardization. After the pharmacological treatment, the exposure media was collected and supplemented with 10% sample treatment buffer (40 mM sodium phosphate (pH 7.4), 40 mM triethanolamine, 0.1% Triton X-100, 200 mM NaCl, 2 mM EGTA, 0.1% Sodium azide), and assayed for either Aβ40 or Aβ42 by a calorimetric ELISA as per the manufacturer's protocol (Biosource International Inc, California). The cells were lysed in 0.1% Triton X-100 in PBS supplemented with 5 μM propridium iodide (Molecular Probes, Eugene, Oreg.) and incubated at 37° C. for 30 minutes prior to measuring fluorescence. Aβ40 and Aβ42 were standardized against propridium iodide fluorescence as a measure of total cell number. 293 EBNA cells (InVitrogen, Carlsbad, Calif.) stably transfected with Swedish mutant β-Amyloid Precursor Protein -695 (SM4 cells) were routinely maintained in DMEM supplemented with sodium pyruvate (1 mM) and 10% fetal bovine serum. […] The cells were lysed in 0.1% Triton X-100 in PBS supplemented with 5 μM propridium iodide (Molecular Probes, Eugene, Oreg.) and incubated at 37° C. for 30 minutes prior to measuring fluorescence. Aβ40 and Aβ42 were standardized against propridium iodide fluorescence as a measure of total cell number. […] The cells were lysed in 0.1% Triton X-100 in PBS supplemented with 5 μM propridium iodide (Molecular Probes, Eugene, Oreg.) and incubated at 37° C. for 30 minutes prior to measuring fluorescence. Aβ40 and Aβ42 were standardized against propridium iodide fluorescence as a measure of total cell number.

SMILES	inhibition of Aβ42 secretion ([1]; 300 μM) [%]	effect on Aβ40 ([2]; 50-300 μM)	inhibition of Aβ42 secretion ([1]; 100 μM) [%]	effect on Aβ40 ([2]; 5-100 μM)
Cc1cccc(N(C)c2cc(Cl)nc(SCC(=O)O)n2)c1C [Compound 1]	66	without altering Aβ40	–	–
CCN(c1cc(Cl)nc(SCC(=O)O)n1)c1cccc(C)c1C [Compound 2, {4-chloro-6-[(2,3-dimethylphenyl)ethylamino]pyrimidin-2-yl-sulfanyl}acetic Acid]	–	–	80	without altering Aβ40

Reference: US20030191144A1, “Compounds, compositions and methods for modulating beta-amyloid production” (Active Pass Pharmaceuticals, Inc., priority 2001, published 2003)
